Data: patent US20240287123A1 (Victoria Link Limited, priority 2021, published 2024)
“Also recorded” adds a separate entry of the source. Where two headings read alike, the source gives them in different places.

Assays:
HHV-6B (Z29; MOLT-3) = experiment: HHV-6B antiviral assay (Z29; MOLT-3); assay type: cell-based, human betaherpesvirus 6B
EBV (Akata/Akata) = experiment: EBV assay: viral DNA quantification in induced Akata cells; assay type: cell-based, Epstein-Barr virus; settings: for activity against EBV: cell-based assay, highest concentration tested in primary assays 50 μM
Protocol: Akata cells were obtained from Louisiana State University, Baton Rouge, LA. The HCMV strain AD169 was obtained from the American Type Culture Collection (ATCC, Manassas, VA). Akata cells latently infected with EBV were obtained from Louisiana State University, Baton Rouge, LA.
(§1) Each experiment that evaluates the antiviral activity of compounds includes both positive and negative control compounds to ensure the performance of each assay. Concurrent assessment of cytotoxicity was also performed for each study in the same cell line and with the same compound exposure.
Assays for EBV were performed by reported methods.^37 Akata cells were induced to undergo a lytic infection with 50 μg/ml of a goat anti-human IgG antibody. Experimental compounds were diluted within plates. The cells were added and incubated for 72 h. Similar plates were initiated without virus induction/addition and used for measuring cytotoxicity by the addition of CTG. For all assays, the replication of the virus was assessed by the quantification of viral DNA. For EBV, primers 5′-[…]-3′ and 5′-CAG TTC CTC GCCTTAGGTTG-3 amplified a fragment corresponding to coordinates 96802-97234 in EBV genome (AJ507799). Compound concentrations sufficient to reduce genome copy number by 50% were calculated from experimental data as well as compound cytotoxicity.

[1] = Cytotoxicity in Akata cells (CTG), concurrent with EBV assay; assay type: cell-based; settings: human, Table 1
Protocol: as §1
Assays for EBV were performed by reported methods.^37 Akata cells were induced to undergo a lytic infection with 50 μg/ml of a goat anti-human IgG antibody. Experimental compounds were diluted within plates. The cells were added and incubated for 72 h. Similar plates were initiated without virus induction/addition and used for measuring cytotoxicity by the addition of CTG. For all assays, the replication of the virus was assessed by the quantification of viral DNA. […] Compound concentrations sufficient to reduce genome copy number by 50% were calculated from experimental data as well as compound cytotoxicity.

HIVADA = experiment: HIV p24 alphaLISA in infected monocyte derived macrophages; assay type: cell-based, Human Immunodeficiency Virus
Protocol: Primary human MDMs were cultured from peripheral blood mononuclear cells and pre-treated for 24 h with ddhC (100 μM), compound 8 (100 μM), compound 21 (100 μM), emtricitabine control (15 μM, 10 μM, 1 μM, 0.1 μM), or the drug vehicle, DMSO. MDM were then infected with HIVADA in the presence of these compounds and treated daily (with compound), while culture supernatants were collected to quantify levels of HIV p24, a viral capsid protein, on days 2-7 of infection.
Leukopaks from healthy donors were obtained from the New York Blood Center and processed by Ficoll gradient centrifugation to isolate peripheral blood mononuclear cells (PBMC). These PBMC were cultured adherently into monocyte derived macrophages (MDM), according to published protocols, on 60 mm dishes for 6 days with 10-20 ng/ml macrophage colony stimulating factor (M-CSF). MDM were pre-treated with ddhC, compound 8, compound 21, emtricitabine (Cat. No .: 10071), or DMSO vehicle at indicated concentrations for 24 hours (NIH AIDS Reagent Program, Bethesda, MD). Cells were left uninfected or infected for 24 h in the presence of one of the compounds listed above with 20 ng/mL HIVADA, a macrophage-tropic HIV strain originally derived from a person with HIV (NIH). Media was changed daily with the mentioned compounds added each time, and supernatants were collected on days 2, 3, 4, 5, 6, and 7 of infection. Each treatment condition was analyzed in duplicate plates per experiment.
Supernatant samples were analyzed for the viral capsid protein, HIV p24, by a sensitive p24 alphaLISA according to the manufacturer's protocol (Perkin-Elmer, Waltham, MA). Treatment conditions were analyzed in duplicate plates, and each supernatant was analyzed in duplicate on a 96-well alphaLISA plate. These were then fit to a sigmoid standard curve to extrapolate HIV p24 levels in pg/mL within the assay limits of detection.

primary human MDM = experiment: Toxicity to MDM: LDH assay and light microscopy; assay type: cell-based
Protocol: Light microscopy was used to image MDMs on day 7 of infection. […] Colorimetric LDH assays were also performed on culture supernatants from these same cells on day 4 of infection to assess cell death.
At the end of each experiment, cells were imaged by light microscopy. After aspirating off media, cells were washed with PBS, and lysates were harvested in extraction buffer containing 0.1% Formic acid, 50% ACN, 40% MeOH, 10% H2O.
Drug toxicity was analyzed using an LDH assay kit according to manufacturer's instructions (Abcam #ab65393, Toronto, Canada). Briefly, supernatants from duplicate plates per treatment condition were added to a 96-well plate. Each supernatant was run in triplicate. Provided assay buffer was added to culture supernatants after mixing with a substrate solution that turns orange upon lactate exposure. After incubation for 30-45 min, colorimetric signal was quantified an OD of 450 nm. LDH was a positive control as well as cells lysed with 10% lysis buffer in media representing the “high control” to which % cytotoxicity was measured. The reference sample was either control uninfected cells treated with DMSO or negative control HIV-infected cells treated with DMSO. Culture media alone was used as a technical negative control. This background signal that was subtracted from all test wells.

[2] = human gammaherpesvirus 4, Akata, Akata/Akata, Table 1, read-out: EBV EC50
[3] = human gammaherpesvirus 4, Akata, read-out: EC50 against EBV
[4] = human gammaherpesvirus 4, Akata, EBV Akata/Akata, assay order Secondary, read-out: Result for compound (EC50/UM)
[5] = human gammaherpesvirus 4, Akata, read-out: Result for compound (EC50/UM), EBV Akata/Akata, assay order Primary
[6] = human gammaherpesvirus 4, Akata, read-out: Result for compound (EC50/UM), EBV Akata/Akata, assay order Secondary

## Nc1ccn(C[C@@H](CO)OCP(=O)(O)O)c(=O)n1 [Cidofovir, cidofovir, reference compound]
HHV-6B (Z29; MOLT-3); cidofovir (CDV) control, MOLT-3, HHV-6B, control run alongside, Primary, read-out: CDV control result (EC50/UM)
  EC50: 3.42 µM
HHV-6B (Z29; MOLT-3); cidofovir (CDV) control, MOLT-3, HHV-6B, control run alongside, Secondary, read-out: CDV control result (EC50/UM)
  EC50: 4.26 µM
EBV (Akata/Akata); EBV Akata/Akata, control run alongside, Primary, read-out: CDV control result (EC50/UM)
  EC50: 2.58 µM
EBV (Akata/Akata); EBV Akata/Akata, control run alongside, Secondary, read-out: CDV control result (EC50/UM)
  EC50: 1.93 µM
EBV (Akata/Akata); [2]
  EC50: 8.25 µM
EBV (Akata/Akata); [3]
  EC50: 8.25 µM
EBV (Akata/Akata); read-out: CDV control result (EC50/UM), EBV Akata/Akata, control run alongside, Secondary
  EC50: 5.95 µM
[1]; Akata cells (without virus induction)
  CC50 at 72 h: > 100 µM

## Nc1ccn([C@H]2CC=C(CO)O2)c(=O)n1 [Compound A-30, 3′,4′-Didehydro-2′,3′-dideoxycytidine]
EBV (Akata/Akata)
  activity against EBV: activity comparable to their 2′-hydroxylated analogues

## CC(C)C(=O)OCC1=CC[C@H](n2ccc(N)nc2=O)O1 [drawing 74, 3′,4′-Didehydro-2′,3′-dideoxy-5′-O-isobutyroylcytidine]
EBV (Akata/Akata); [4]
  EC50: 7.09 µM

## CCC(CC)COC(=O)[C@H](C)N[P@](=O)(OCC1=C[C@@H](O)[C@H](n2ccc(N)nc2=O)O1)Oc1ccccc1 [drawing 77]
EBV (Akata/Akata); [5]
  EC50: > 50 µM

## CC(C)OC(=O)[C@H](C)N[P@](=O)(OCC1=C[C@@H](O)[C@H](n2ccc(N)nc2=O)O1)Oc1ccccc1 [Compound 21, 3′-Deoxy-3′,4′-didehydrocytidine-5′-O-[phenyl(isopropoxy-L-alaninyl) ]-Sp-phosphoramidate]
HIVADA; 100 μM, infected MDM, days 2-7, compared with DMSO control
  levels of HIV p24 viral capsid protein: significantly reduce; also recorded: significantly decreased
HIVADA; low doses: compound 8 compound 21 (0.1-1 μM) as printed
  impact on HIV replication relative to the DMSO control: minimal impact
Primary human MDM; 100 μM, day 4 of infection
  LDH activity in HIV-infected MDMs relative to DMSO controls: nearly identical
Primary human MDM; 100 uM, visual inspection by light microscopy and colorimetric LDH assays
  toxicity to MDMs: non-toxic
EBV (Akata/Akata)
  activity against EBV: more weakly inhibiting
EBV (Akata/Akata); [2]
  EC50: 23.7 µM
EBV (Akata/Akata); [5]
  EC50: 23.8 µM
EBV (Akata/Akata); [3]
  EC50: 7.6 to 38.7 µM
[1]
  CC50 at 72 h: > 50 µM

## CC(C)[C@H](N)C(=O)OCC1=C[C@@H](O)[C@H](n2ccc(N)nc2=O)O1 [drawing 70]
EBV (Akata/Akata); [4]
  EC50: 18.5 µM

## CCCCCC(=O)OCC1=C[C@@H](O)[C@H](n2ccc(N)nc2=O)O1 [Compound 27]
EBV (Akata/Akata)
  activity against EBV: inactive

## Nc1ccn([C@H]2CC=C(CO)O2)c(=O)n1 [drawing 72, 3′,4′-Didehydro-2′,3′-dideoxycytidine]
EBV (Akata/Akata); [5]
  EC50: 29.6 µM

## CC(C)(C)C(=O)SCCOP(=O)(OCCSC(=O)C(C)(C)C)OCC1=C[C@@H](O)[C@H](n2ccc(NO)nc2=O)O1
EBV (Akata/Akata); [6]
  EC50: 16.6 µM

## CC(=O)OCC1=C[C@@H](O)[C@H](n2ccc(N)nc2=O)O1 [drawing 68]
EBV (Akata/Akata); [6]
  EC50: 7.96 µM

## CC(C)C(=O)OCC1=C[C@@H](O)[C@H](n2ccc(N)nc2=O)O1 [drawing 64, 3′-Deoxy-3′,4′-didehydro-5′-O-isobutyroyl-cytidine]
EBV (Akata/Akata); [4]
  EC50: 16.1 µM

## CCCCCC(=O)OCC1=C[C@@H](O)[C@H](n2ccc(N)nc2=O)O1 [drawing 75]
EBV (Akata/Akata); [5]
  EC50: > 50 µM

## CC(C)C(=O)OCC1=CC[C@H](n2ccc(N)nc2=O)O1 [Compound 39, 3′,4′-Didehydro-2′,3′-dideoxy-5′-O-isobutyroylcytidine]
HHV-6B (Z29; MOLT-3)
  activity against HHV-6B: active
HHV-6B (Z29; MOLT-3); Human betaherpesvirus 6B, MOLT-3, HHV-6B Z29, MOLT-3, Primary, read-out: Result for compound (EC50/UM)
  EC50: 5.54 µM
HHV-6B (Z29; MOLT-3); Human betaherpesvirus 6B, MOLT-3, HHV-6B Z29, MOLT-3, Secondary, read-out: Result for compound (EC50/UM)
  EC50: 16.7 µM
EBV (Akata/Akata)
  activity against EBV: activity comparable to their 2′-hydroxylated analogues

## CC(C)(C)C(=O)OCOP(=O)(OCOC(=O)C(C)(C)C)OCC1=C[C@@H](O)[C@H](n2ccc(N)nc2=O)O1 [drawing 76]
EBV (Akata/Akata); [5]
  EC50: > 50 µM

## CC(C)(C)C(=O)OCOP(=O)(OCOC(=O)C(C)(C)C)OCC1=C[C@@H](O)[C@H](n2ccc(N)nc2=O)O1 [Compound 35, 3′,4′-Didehydro-3′-deoxycytidine-5′-bis(pivaloyloxymethyl)phosphate]
EBV (Akata/Akata)
  activity against EBV: inactive

## CC(C)(C)C(=O)OCC1=C[C@@H](O)[C@H](n2ccc(N)nc2=O)O1 [Compound 25]
EBV (Akata/Akata)
  activity against EBV: comparably active

## CC(=O)OCC1=C[C@@H](O)[C@H](n2ccc(N)nc2=O)O1 [drawing 67]
EBV (Akata/Akata); [5]
  EC50: 8.96 µM

## CC(C)(C)C(=O)OCC1=C[C@@H](O)[C@H](n2ccc(N)nc2=O)O1 [drawing 69]
EBV (Akata/Akata); [4]
  EC50: 15.9 µM

## CCC(CC)COC(=O)[C@H](C)N[P@](=O)(OCC1=C[C@@H](O)[C@H](n2ccc(N)nc2=O)O1)Oc1ccccc1 [Compound 32, 3′,4′-Didehydro-3′-deoxycytidine-5′-0-{phenyl [2-(ethyl)but-1-yloxy-L-alaninyl] }-Sp-phosphoramidate]
EBV (Akata/Akata)
  activity against EBV: not active

## CC(C)C(=O)OCC1=CC[C@H](n2ccc(N)nc2=O)O1 [drawing 73, 3′,4′-Didehydro-2′,3′-dideoxy-5′-O-isobutyroylcytidine]
EBV (Akata/Akata); [5]
  EC50: 6.31 µM

## CC(C)[C@H](N)C(=O)OCC1=C[C@@H](O)[C@H](n2ccc(N)nc2=O)O1 [Compound 30, 3′,4′-Didehydro-3′-deoxy-5′-O-L-valinoylcytidine]
EBV (Akata/Akata)
  activity against EBV: comparably active
